Experimental data from US8039513B2, “Cis-1,2-substituted stilbene derivatives and their use in preparation of drugs for treatment and/or prevention of diabetes” (Institute of Radiation Medicine, Academy of Military …, priority 2004, dated 2011).

Legend:
[1] = test system: mice with glucose-induced hyperglycemia; experiment: Hypoglycemic effect of orally administered compounds in mice with glucose-induced hyperglycemia; format: in vivo, Kun Ming male mice; conditions: glucose 2 g/10 ml/kg orally 15 min later, fasted mice
Description: In the following biological experiments, the hypoglycemic activity of the above compounds was chiefly observed in hyperglycemic mice. Taking 3,3′,5′-trihydroxy-4′-methoxystilbene-3-O-β-D-glucoside (rhaponticin) as a positive control drug, the hypoglycemic activity of these compounds were preliminarily evaluated.
Kun Ming male mice (certification: Medical Animal No. D01-3023) with body weight of 21-33 g were used in the experiments. After fasting and feeding water for 16 hours, the compounds were administered to the mice. The candidate compounds were formulated with dimethyl sulfoxide (2.5 ml/kg), and administered to the mice intragastrically. After fifteen minutes, glucose (2 g/10 ml/kg) was administered orally. One hour later, one drop of blood was collected by cutting a segment of tail and the blood sugar level was monitored with a blood sugar monitor manufactured by Johnson Company, USA, by using a test paper containing glucose oxidase. For the mice of the control group, dimethyl sulfoxide ([…]) and glucose (2 g/10 ml/kg) were given intragastrically.

[2] = Table 1, 400 mg/kg intragastrically, DMSO control 9.50 ± 1.06
[3] = Table 2, 400 mg/kg intragastrically, DMSO control 8.53 ± 0.76
[4] = Table 3, 400 mg/kg intragastrically, DMSO control 7.80 ± 1.33

SMILES | Blood sugar level one hour after administration M ± SD [1, 2] [mmol/L] | Blood sugar level one hour after administration M ± SD [1, 3] [mmol/L] | also measured
COc1cc(/C=C(/C(=O)O)c2ccccc2)ccc1OC(C)=O [Example 3, cis-2-phenyl-3-(3′-methoxy-4′-acetoxy-phenyl)acrylic acid] | 7.30 ± 0.68 | 7.85 ± 0.16 | 
COc1cc(C=C(C(=O)NCc2ccco2)c2ccccc2)ccc1OC(C)=O [Example 7, cis-2-phenyl-3-(3′-methoxy-4′-acetoxy-phenyl)-N-(methylenefuran)acrylamide] |  |  | Blood sugar level one hour after administration M ± SD [1, 4]: 6.95 ± 0.61 mmol/L
COc1cc(/C=C(/C(=O)O)c2ccccc2)ccc1O [Example 4, cis-2-phenyl-3-(3′-methoxy-4′-hydroxy-phenyl)acrylic acid] |  | 7.30 ± 2.21 | 
COc1cc(/C=C\c2ccccc2)ccc1O [Example 1, cis-1-phenzyl-2-(3′-methoxy-4′-hydroxy-phenyl)ethene] | 7.62 ± 1.59 |  | 
COc1ccc(/C=C(/C(=O)O)c2ccccc2)cc1OC(C)=O [Example 2, cis-2-phenyl-3-(3′-acetoxy-4′-methoxy-phenyl)acrylic acid] | 8.20 ± 0.99 |  | 
COc1ccc(/C=C/c2cc(O)cc(O[C@@H]3O[C@H](CO)[C@@H](O)[C@H](O)[C@H]3O)c2)cc1O [rhaponticin, 3,3′,5′-trihydroxy-4′-methoxystilbene-3-O-β-D-glucoside, reference compound] | 9.14 ± 1.90 |  | Blood sugar level one hour after administration M ± SD ([1]; Table 1, 800 mg/kg intragastrically, DMSO control 9.50 ± 1.06): 7.02 ± 1.01 mmol/L
COc1ccc(/C=C(/C(=O)O)c2ccccc2)cc1C(=O)O [Example 5, cis-2-phenyl-3-(3′-carboxy-4′-methoxy-phenyl)acrylic acid] |  | 8.50 ± 1.01 | 
COC(=O)/C(=C/c1ccc(OC)c(OC)c1)c1ccccc1 [Example 9, cis-2-phenyl-3-(3′,4′-dimethoxy-phenyl)-methyl acrylate] |  |  | Blood sugar level one hour after administration M ± SD [1, 4]: 8.41 ± 0.88 mmol/L
COc1cc(C=C(C(=O)N[C@H]2CC[C@@H](C)CC2)c2ccccc2)ccc1OC(C)=O [Example 8, cis-2-phenyl-3-(3′-methoxy-4′-acetoxy-phenyl)-N-(4-methylcyclohexyl)acrylamide] |  |  | melting point: 136 to 140 °C; Blood sugar level one hour after administration M ± SD ([1]; Table 3, 100 mg/kg intragastrically, DMSO control 7.80 ± 1.33): 5.61 ± 1.67 mmol/L
COc1cc(/C=C(/C(=O)NC2CCCCC2)c2ccccc2)ccc1OC(C)=O [Example 6, cis-2-phenyl-3-(3-methoxy-4′-acetoxy-phenyl)-N-cyclohexyl acrylamide] |  | 5.46 ± 0.86 | 
